32 molecules from ChEMBL document CHEMBL4732133 (Eur J Med Chem, 2021) can be followed below.

The nature of experiment [1]: Inhibition of Influenza A virus (A/Puerto Rico/8/1934(H1N1)) neuraminidase using 4-MU-NANA as substrate preincubated for 5 mins followed by substrate addition and measured after 30 to 60 mins by fluorescence assay.
Experiment [2] is described as follows: Inhibition of Influenza A virus (A/Babol/36/2005 (H3N2)) neuraminidase using 4-MU-NANA as substrate preincubated for 5 mins followed by substrate addition and measured after 30 to 60 mins by fluorescence assay.
Experiment [3] can be described thus: Inhibition of Influenza A virus (A/goose/Guangdong/SH7/2013(H5N1)) neuraminidase using 4-MU-NANA as substrate preincubated for 5 mins followed by substrate addition and measured after 30 to 60 mins by fluorescence assay. Details: species or system H5N1 subtype.
Experiment [4] is described as follows: Inhibition of Influenza A virus (A/California/04/2009(H1N1)) neuraminidase using 4-MU-NANA as substrate preincubated for 5 mins followed by substrate addition and measured after 30 to 60 mins by fluorescence assay.
Experiment [5] in a line: Inhibition of Influenza A virus (A/Chicken/Hebei/UR/2014(H5N2)) neuraminidase using 4-MU-NANA as substrate preincubated for 5 mins followed by substrate addition and measured after 30 to 60 mins by fluorescence assay.

Take `CCC(CC)O[C@@H]1C=C(C(=O)O)C[C@H](NCc2ccc(OCC3CCC3)cc2)[C@H]1NC(C)=O`: the IC50 (as a rule, the concentration that gives 50% inhibition) came to 7.77 µM in experiment [1]; 84.2 µM in experiment [2]; 6 µM in experiment [3]; 47.5 µM in experiment [4]; 58.2 µM in experiment [5].

In the case of `CCC(CC)O[C@@H]1C=C(C(=O)O)C[C@H](NCc2ccc(OCc3cccc(C#N)c3)cc2)[C@H]1NC(C)=O`, the IC50 amounted to 1.46 µM in experiment [1]; 22.2 µM in experiment [2]; 0.34 µM in experiment [3]; 2.56 µM in experiment [4]; 27 µM in experiment [5].

On to `CCC(CC)O[C@@H]1C=C(C(=O)O)C[C@H](NCc2ccc(C#Cc3ccccc3)cc2)[C@H]1NC(C)=O`, for which the IC50 in experiment [1] was determined as 3.67 µM; in experiment [2], 9.9 µM; in experiment [3], 12 µM; in experiment [4], 27.6 µM; in experiment [5], 17.8 µM.

In the case of `CCC(CC)O[C@@H]1C=C(C(=O)O)C[C@H](NCc2ccc(OCc3ccc(SC)cc3)cc2)[C@H]1NC(C)=O`, the IC50 in experiment [1] came to 1.48 µM; in experiment [2] it was 13.7 µM; in experiment [3] it was 0.98 µM; in experiment [4], 4.02 µM; in experiment [5] it was 11.6 µM.

For the molecule `CCC(CC)O[C@@H]1C=C(C(=O)O)C[C@H](NCc2ccc(NCc3ccc(F)cc3)cc2)[C@H]1NC(C)=O`, the 50% inhibitory concentration (IC50) amounted to 0.96 µM in experiment [1]; 0.48 µM in experiment [2]; 2.11 µM in experiment [3]; 1.07 µM in experiment [4]; 0.86 µM in experiment [5].

For the molecule `CCC(CC)O[C@@H]1C=C(C(=O)O)C[C@H](NCc2ccc(Oc3ccc(OC)cc3)cc2)[C@H]1NC(C)=O`, the IC50 in experiment [1] was 12.2 µM; in experiment [2] it was 24.4 µM; in experiment [3], 1.13 µM; in experiment [4], 14.3 µM; in experiment [5], 28.5 µM.

With `CCC(CC)O[C@@H]1C=C(C(=O)O)C[C@H](NCc2ccc(OCc3ccccc3C#N)cc2)[C@H]1NC(C)=O`, the half-maximal inhibitory concentration (IC50) in experiment [1] is 22.9 µM; in experiment [2], over 100 µM; in experiment [3], 1.37 µM; in experiment [4], 21.4 µM; in experiment [5], 61.1 µM.

Turning to `CCC(CC)O[C@@H]1C=C(C(=O)O)C[C@H](NCc2ccc(OCc3ccccc3OC)cc2)[C@H]1NC(C)=O`, the IC50 came to 7.64 µM in experiment [1]; 38.7 µM in experiment [2]; 1.31 µM in experiment [3]; 13.5 µM in experiment [4]; 26.6 µM in experiment [5].

Regarding `CCC(CC)O[C@@H]1C=C(C(=O)O)C[C@H](NCc2ccc(OCC3CCCCC3)cc2)[C@H]1NC(C)=O`, the IC50 in experiment [1] was 7.08 µM; in experiment [2] it was 8.4 µM; in experiment [3] it was 10.5 µM; in experiment [4] it was 19.6 µM; in experiment [5], 13.5 µM.

In the case of `CCC(CC)O[C@@H]1C=C(C(=O)O)C[C@H](NCc2ccc(OCc3ccccc3F)cc2)[C@H]1NC(C)=O`, the IC50 is 0.48 µM in experiment [1]; 44.5 µM in experiment [2]; 0.3 µM in experiment [3]; 0.48 µM in experiment [4]; 46.6 µM in experiment [5].

As for `CCC(CC)O[C@@H]1C=C(C(=O)O)C[C@H](NCc2ccc(OCc3cccc(C)c3)cc2)[C@H]1NC(C)=O`, the IC50 was found to be 0.31 µM in experiment [1]; 21.5 µM in experiment [2]; 0.51 µM in experiment [3]; 1.21 µM in experiment [4]; 30.9 µM in experiment [5].

Turning to `CCC(CC)O[C@@H]1C=C(C(=O)O)C[C@H](NCc2ccc(Oc3cccc(C)c3)cc2)[C@H]1NC(C)=O`, the IC50 in experiment [1] amounted to 0.99 µM; in experiment [2], 9.21 µM; in experiment [3] it was 0.49 µM; in experiment [4], 1.68 µM; in experiment [5], 12.8 µM.

For `CCC(CC)O[C@@H]1C=C(C(=O)O)C[C@H](NCc2ccc(SCc3ccc(OC)cc3)cc2)[C@H]1NC(C)=O`, the IC50 in experiment [1] came to 0.74 µM; in experiment [2], 24.7 µM; in experiment [3], 0.78 µM; in experiment [4] it was 1.7 µM; in experiment [5], 49.6 µM.

As for `CCC(CC)O[C@@H]1C=C(C(=O)O)C[C@H](NCc2ccc(Oc3ccc(C)cc3)cc2)[C@H]1NC(C)=O`, the IC50 in experiment [1] is 6.74 µM; in experiment [2], 20.8 µM; in experiment [3], 3.36 µM; in experiment [4] it was 12.4 µM; in experiment [5], 19.2 µM.

As to `CCC(CC)O[C@@H]1C=C(C(=O)O)C[C@H](NCc2ccc(/C=C/c3ccccc3)cc2)[C@H]1NC(C)=O`, the IC50 in experiment [1] came to 0.69 µM; in experiment [2] it was 4.78 µM; in experiment [3], 0.26 µM; in experiment [4], 0.44 µM; in experiment [5] it was 10.6 µM.

Take `CCC(CC)O[C@@H]1C=C(C(=O)O)C[C@H](NCc2ccc(OCc3cccc(B4OC(C)(C)C(C)(C)O4)c3)cc2)[C@H]1NC(C)=O`: the half-inhibitory concentration (IC50) in experiment [1] is 0.16 µM; in experiment [2], over 40 µM; in experiment [3], 0.098 µM; in experiment [4], 0.55 µM; in experiment [5], 13.4 µM.

Take `CCC(CC)O[C@@H]1C=C(C(=O)O)C[C@H](NCc2ccc(OCc3ccc(C#N)cc3)cc2)[C@H]1NC(C)=O`: the concentration for half-maximal inhibition (IC50) amounted to 0.41 µM in experiment [1]; 20.9 µM in experiment [2]; 0.42 µM in experiment [3]; 0.41 µM in experiment [4]; 13.7 µM in experiment [5].

For the molecule `CCC(CC)O[C@@H]1C=C(C(=O)O)C[C@H](NCc2ccc(OCc3cccc(F)c3)cc2)[C@H]1NC(C)=O`, the IC50 in experiment [1] was 0.71 µM; in experiment [2], 18.8 µM; in experiment [3] it was 0.58 µM; in experiment [4], 0.69 µM; in experiment [5], 33.3 µM.

In the case of `CCC(CC)O[C@@H]1C=C(C(=O)O)C[C@H](NCc2ccc(O[C@H](C)c3ccccc3)cc2)[C@H]1NC(C)=O`, the IC50 is 8.02 µM in experiment [1]; 56.1 µM in experiment [2]; 3.67 µM in experiment [3]; 19.6 µM in experiment [4]; 11.9 µM in experiment [5].

`CCC(CC)O[C@@H]1C=C(C(=O)O)C[C@H](NCc2ccc(OCc3ccc(C)cc3)cc2)[C@H]1NC(C)=O`: the IC50 in experiment [1] worked out at 0.73 µM; in experiment [2] it was 27.1 µM; in experiment [3] it was 0.73 µM; in experiment [4] it was 1.45 µM; in experiment [5], 36.4 µM.

As to `CCC(CC)O[C@@H]1C=C(C(=O)O)C[C@H](NCc2ccc(O[C@@H](C)c3ccccc3)cc2)[C@H]1NC(C)=O`, the IC50 in experiment [1] was 12.2 µM; in experiment [2], over 100 µM; in experiment [3] it was 7.12 µM; in experiment [4] it was 23.4 µM; in experiment [5], 21 µM.

Regarding `CCC(CC)O[C@@H]1C=C(C(=O)O)C[C@H](NCc2ccc(OCc3ccccc3C)cc2)[C@H]1NC(C)=O`, the concentration for half-maximal inhibition (IC50) in experiment [1] is 1.23 µM; in experiment [2] it was over 100 µM; in experiment [3], 1.88 µM; in experiment [4], 4.73 µM; in experiment [5] it was 38.6 µM.

As for `CCC(CC)O[C@@H]1C=C(C(=O)O)C[C@H](NCc2ccc(SCc3ccccc3)cc2)[C@H]1NC(C)=O`, the IC50 in experiment [1] turned out to be 0.45 µM; in experiment [2] it was 22.3 µM; in experiment [3], 0.37 µM; in experiment [4] it was 0.64 µM; in experiment [5], 26.1 µM.

Turning to `CCC(CC)O[C@@H]1C=C(C(=O)O)C[C@H](NCc2ccc(OCc3ccc(F)cc3)cc2)[C@H]1NC(C)=O`, the IC50 worked out at 1.29 µM in experiment [1]; 14.9 µM in experiment [2]; 0.46 µM in experiment [3]; 0.65 µM in experiment [4]; 22.6 µM in experiment [5].

As to `CCC(CC)O[C@@H]1C=C(C(=O)O)C[C@H](NCc2ccc(OCc3ccc(OC)cc3)cc2)[C@H]1NC(C)=O`, the IC50 in experiment [1] was 1.62 µM; in experiment [2], 26.7 µM; in experiment [3], 0.73 µM; in experiment [4], 0.9 µM; in experiment [5], 34.4 µM.

On to `CCC(CC)O[C@@H]1C=C(C(=O)O)C[C@H](NCc2ccc(Oc3ccccc3OC)cc2)[C@H]1NC(C)=O`, for which the half-maximal inhibitory concentration (IC50) was 0.86 µM in experiment [1]; 24.3 µM in experiment [2]; 0.92 µM in experiment [3]; 2.2 µM in experiment [4]; 16.3 µM in experiment [5].

Take `CCC(CC)O[C@@H]1C=C(C(=O)O)C[C@H](NCc2ccc(Oc3ccccc3C)cc2)[C@H]1NC(C)=O`: the IC50 in experiment [1] was found to be 0.45 µM; in experiment [2], 34.4 µM; in experiment [3] it was 0.31 µM; in experiment [4], 0.57 µM; in experiment [5], 33.7 µM.

With `CCC(CC)O[C@@H]1C=C(C(=O)O)C[C@H](NCc2ccc(Oc3ccccc3F)cc2)[C@H]1NC(C)=O`, the IC50 came out at 0.49 µM in experiment [1]; 14.4 µM in experiment [2]; 0.26 µM in experiment [3]; 0.55 µM in experiment [4]; 21.7 µM in experiment [5].

`CCC(CC)O[C@@H]1C=C(C(=O)O)C[C@H](NCc2ccc(NCc3ccccc3)cc2)[C@H]1NC(C)=O`: the IC50 in experiment [1] amounted to 0.38 µM; in experiment [2], 0.3 µM; in experiment [3], 1.52 µM; in experiment [4] it was 0.77 µM; in experiment [5], 0.59 µM.

Turning to `CCC(CC)O[C@@H]1C=C(C(=O)O)C[C@H](NCc2ccc(OCC3CC3)cc2)[C@H]1NC(C)=O`, the IC50 in experiment [1] is 10.1 µM; in experiment [2], over 100 µM; in experiment [3], 1.68 µM; in experiment [4], 33 µM; in experiment [5], 71.2 µM.

With `CCC(CC)O[C@@H]1C=C(C(=O)O)C[C@H](NCc2ccc(SCc3ccc(F)cc3)cc2)[C@H]1NC(C)=O`, the IC50 was 0.77 µM in experiment [1]; 23.7 µM in experiment [2]; 0.9 µM in experiment [3]; 1.48 µM in experiment [4]; 16.5 µM in experiment [5].

`CCC(CC)O[C@@H]1C=C(C(=O)O)C[C@H](NCc2ccc(Oc3cccc(OC)c3)cc2)[C@H]1NC(C)=O`: the IC50 in experiment [1] was 0.87 µM; in experiment [2] it was 12.5 µM; in experiment [3] it was 0.46 µM; in experiment [4], 1.95 µM; in experiment [5], 13.6 µM.
